# Measurements taken from patent US5873359A, “Methods and devices for treating pulmonary vasoconstriction and asthma” (The General Hospital Corporation, priority 1994, dated 1999).
# Assays:
# control lambs = experiment: Inhaled NO in control lambs with no drug infusion; assay type: in vivo, Suffolk lambs; conditions: 80 ppm NO, FiO2 0.6-0.7, two lambs
# Description: Eight Suffolk lambs weighing 25-35 kg underwent a sterile thoracotomy in order to place a left atrial line, tracheostomy and femoral artery line under general endotracheal anesthesia with halothane/oxygen three days before study. After three days of recovery the lambs underwent sterile placement of a 7 French thermal dilution pulmonary artery monitoring catheter under local anesthesia.
# Awake unanesthetized lambs were studied in order to avoid general anesthesia which can blunt hypoxic vasoconstriction. Lambs were placed in a Babraham cage and allowed to drink and eat ad lib. Two studies were performed 2 days apart on each of six lambs. After the study the lambs were sacrificed with an overdose of barbiturate and heir lungs were fixed, stained and examined by light microscopy for pathological changes.
# A pulmonary vasodilator dose response curve plotting changes in PAP as a function of inhaled NO concentration during U46619 infusion was produced for eight lambs breathing a series of increasing NO/O2 mixtures of 5, 10, 20, 40, and 80 ppm NO for six minutes (FIG. 1). Each level of NO exposure was followed by six minutes of breathing the oxygen mixture without NO (FIG. 2). A second exposure to NO was examined for similar periods. Subsequently, a control period breathing the oxygen mixture was studied six minutes after ceasing U46619 infusion. At each three and six minute time period after administering or discontinuing NO during the study, we measured mean and phasic pulmonary artery pressure (PAP), left atrial pressure (LAP), systemic arterial pressure (SAP) and central venous pressure (CVP). All pressures were recorded on a Hewlett Packard multi-channel strip chart recorder with transducers zeroed to atmospheric pressure at the mid point of the thorax (e.g., see FIG. 3). Cardiac output (CO) was measured by thermal dilution as the average of two determinations injecting 5 ml of 0° C. Ringers lactate. Pulmonary vascular resistance (PVR) and systemic vascular resistance (SVR) were computed by standard formulae; PVR measured at each inhaled NO concentration is shown in FIG. 4. Appropriate statistical analyses were performed, and all data were expressed as mean ± standard error.
# Two control lambs with no drug infusion breathed 80 ppm NO at an F1 O2 of 0.6-0.7. There was no change of mean PAP, SAP, CO or SVR in these lambs.
# [1] = test system: methacholine bronchoconstriction; experiment: NO and terbutaline aerosol during methacholine infusion; assay type: in vivo, Hartley strain guinea pigs; conditions: NO gas before or after inhaled terbutaline
# Protocol: Male Hartley strain guinea pigs (300-440g body wt) were anesthetized with α-chloralose (50 mg/kg) and urethane (500 mg/kg) (Drazen et al., J. Appl. Physiol. 48:613-618, 1980). A tracheostomy was performed, and the animals were intubated with a tubing adaptor (ID 1.65 mm) and ventilated with a small animal ventilator (Harvard Apparatus, a division of Ealing Scientific, Natick, Mass.) at 8 ml/kg and 60 breaths/min. A jugular vein was cannulated for intravenous administration of drugs. The chest was opened by bilateral excision of a portion of the ribs anteriorly so that the lungs were exposed to atmospheric pressure (Shore and Drazen, J. Appl. Physiol. 67:2504-2511, 1989). A positive end expiratory pressure of 3-4 cmH2 O was provided.
# Guinea pigs were then placed inside a plethysmograph (Amdur and Mead, Am. J. Physiol. 192:363-368, 1958), that was connected to a large reservoir containing copper mesh to maintain the plethysmograph isothermal. Plethysmograph pressure was measured with a differential pressure transducer (Celesco, Canoga Park, Calif.); the opposite side of this transducer was connected to a similar reservoir. Pressure at the airway opening was measured from a side tap in the tracheal canula. Transpulmonary pressure was measured with a differential pressure transducer (Celesco) as the difference between airway opening pressure and the pressure inside the plethysmograph. […]
smiles,measurement,setting,value
"[N]=O [NO, nitric oxide]",CO,control lambs,no change
same,SAP,control lambs,no change
same,SVR,control lambs,no change
same,mean PAP,control lambs,no change
same,bronchodilating effects of NO plus terbutaline,[1],additive
